Compound: CN(C)C[C@@H]1CCn2cc(c3ccccc32)C2=C(C(=O)NC2=O)c2cn(c3ccccc23)CCO1 [Ruboxistaurin]
Assay: relative viability (nuclei count vs DMSO), 5 days (fraction); higher = more cells survive
How it was run: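 Viability was defined as treated-well nuclei divided by vehicle-well nuclei, with the median taken over replicate plates. Cells from lung cancer lines sat overnight at 37 °C in 1536-well plates, received five √10-spaced library-drug doses by pinning on vehicle-anchored plates, and grew 5 days without medium change before one-step fixation, permeabilisation and Hoechst staining, 4× imaging and MetaXpress nuclear counts. Only plates with control CV under 25% and at least one doubling were kept.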

Cell Line	relative viability (0.08 µM)	relative viability (0.8 µM)	relative viability (2.53 µM)	relative viability (8 µM)
201T	1.03	0.98	1.01	0.973
A549	1.05	0.9	1	0.83
A-427	0.997	0.871	0.924	0.821
ABC-1	1.16	0.951	1.16	0.89
BEN	1.05	0.902	0.877	0.857
CAL-12T	1.15	0.879	1.03	1.09
COR-L23	1.1	0.955	1.14	1.17
COR-L 105	1.08	0.803	0.949	0.782
ChaGo-K-1	1.06	0.976	1.06	0.961
EKVX	1.06	0.928	1.02	0.884
EMC-BAC-2	1.05	0.957	0.95	0.84
EPLC-272H	1.12	0.794	0.928	0.857
H3255	1.09	0.919	0.99	0.99
HARA	0.978	0.918	0.976	0.929
HCC-15	1.06	0.953	1.07	1.04
HCC-44	1.01	0.979	1.01	1.07
HCC-78	1.11	0.996	1.1	0.949
HCC-366	0.989	0.95	1.02	1.05
HCC-827	1.05	1.03	1.09	1.09
HOP-62	1.05	1.02	1.11	1.16
LC-2-ad	1.06	0.935	1.04	1.08
LCLC-97TM1	0.905	0.948	1.08	0.906
LCLC-103H	0.998	0.887	0.894	0.841
LK-2	0.952	1	1.12	0.833
LOU-NH91	1.09	0.939	1.01	0.927

Cell Line	relative viability (0.08 µM)	relative viability (0.8 µM)	relative viability (2.53 µM)	relative viability (8 µM)
LU99A	0.956	0.858	1.04	0.852
LXF-289	1.02	0.999	0.991	1.06
NCI-H23	0.974	0.892	1.03	0.886
NCI-H322M	1.02	0.863	0.895	0.551
NCI-H358	1.14	0.881	0.984	0.712
NCI-H441	1.14	0.936	1.19	0.947
NCI-H460	1.01	0.98	1.04	1.02
NCI-H520	1.05	0.901	1.02	0.779
NCI-H522	0.949	1.05	0.869	0.892
NCI-H596	0.979	0.864	1.02	0.867
NCI-H647	1.1	0.898	1	0.978
NCI-H650	1.19	0.864	0.98	1.02
NCI-H661	1.03	0.962	1.05	1.04
NCI-H727	0.952	0.7	0.969	0.808
NCI-H838	1.03	0.839	0.964	0.923
NCI-H1355	1.05	0.882	0.971	0.944
NCI-H1395	1.05	0.844	1.01	0.882
NCI-H1437	1	0.914	0.993	1.07
NCI-H1650	1.24	0.742	1.08	0.886
NCI-H1651	1.02	0.983	1	1.03
NCI-H1666	1.09	1.02	1.04	0.968
NCI-H1703	1.19	0.697	0.876	0.724
NCI-H1734	0.989	0.832	1.04	0.816
NCI-H1755	1.01	1.01	0.974	1.03
NCI-H1792	1.09	0.78	0.938	0.796

Cell Line	relative viability (0.08 µM)	relative viability (0.8 µM)	relative viability (2.53 µM)	relative viability (8 µM)
NCI-H1793	1.05	0.749	1.27	1.08
NCI-H1915	0.984	0.958	0.998	0.962
NCI-H1944	0.958	0.897	0.932	0.819
NCI-H1975	0.945	0.834	1.02	0.927
NCI-H1993	1.18	0.756	0.908	0.696
NCI-H2009	1.04	0.946	1.06	1.19
NCI-H2023	1.02	0.788	1.08	0.735
NCI-H2085	1.02	0.942	1.07	1.04
NCI-H2087	1.17	0.976	1.05	1.06
NCI-H2126	1	0.898	1.04	0.934
NCI-H2170	0.994	0.875	1.06	0.953
NCI-H2228	0.94	0.89	1.01	0.93
NCI-H2342	1.02	0.915	1.06	1.04
NCI-H2347	1.07	0.976	1.08	1.08
NCI-H2405	1.17	0.97	1.01	1.01
NCI-H3122	0.98	0.963	1.01	1.07
PC-3 [JPC-3]	1.12	0.97	1.11	1.09
PC-14	1.17	0.924	1.01	0.989
RERF-LC-KJ	1.04	0.903	0.995	0.959
SK-LU-1	1.22	0.969	1.03	1.08
SK-MES-1	1.07	0.91	1.02	0.898
SW 1573	1.16	0.871	1.02	0.907
UMC-11	0.964	0.914	0.974	0.762

Reference: the supplement of paper PMC10307832
